Assay results from US20100143993A1, “PROCESS FOR FERMENTIVE PREPARATIONFOR ALCOLHOLS AND RECOVERY OF PRODUCT” (E.I. DU PONT DE NEMOURS AND COMPANY, priority 2008, published 2010).
Where “and” joins values, the source holds several entries; their conditions need not be identical. Identical values can stand only once.

Tests used:
[1] = system: Lactobacillus fermentum (ATCC 14931); assay: Glucose Uptake Index of Lactobacillus fermentum culture with ionic liquid; type: cell-based; conditions: 5% (v/v) of the ionic liquid phase, MRS medium, 30° C., 16 hours after addition
[2] = system: Lactobacillus zeae (ATCC 15820); assay: Glucose Uptake Index of Lactobacillus zeae culture with ionic liquid; type: cell-based; conditions: 5% (v/v) of the ionic liquid phase, MRS medium, 30° C., 16 hours after addition
Protocol: This media was made per bottle instructions using sterilized water, and was then again filter sterilized before use. The test tubes were incubated at 30° C. at 175 rpm in an Inova Incubator (Karlsbad, Sweden). After 24 hours, the test tubes were removed and stored at 4° C.
A portion (50 μL) of each stock culture prepared as above was inoculated into separate 15 mL sterile polypropylene culture tubes containing fresh MRS medium (3 mL). These tubes were incubated for four hours at 30° C. at 175 rpm. After four hours, one of these culture tubes was inoculated with 150 μL (5% v/v) of each of the ionic liquids as listed in Table 1 below. […] Each tube that was inoculated with an ionic liquid was also paired with a tube that received no ionic liquid and was used as a control.
All culture tubes were then incubated again under the same conditions for another 16 hours. After 16 hours, the culture tubes were stored at −80° C. Analytical samples were taken from each culture tube by thawing the samples and spinning them at 28,000 rpm and 20° C. for ten minutes in a Sorvall Instruments RC3C (Newtown Conn.) centrifuge. One milliliter of supernatant was removed from each tube and was subjected to high performance liquid chromatography (HPLC) analysis using an Agilent (Palo Alto Calif.) HPLC 1100 with a BioRad Aminex 87-H using 0.008 N sulfuric acid with both diode array and refractive index detection, and an Agilent HPLC 1100 with a Shodex OH-pak column using 0.01 N sulfuric acid. Data analysis was performed using the Agilent Chemstation software and Microsoft Excel.
The glucose uptake index was calculated by taking the total glucose consumed in a fermentation sample, whether or not the sample contained an ionic liquid, and dividing it by the total initial glucose present in the broth at the start of fermentation.

[3] = Extraction of ethanol from an aqueous solution by ionic liquid; conditions: for Ethanol: ethanol concentration in aqueous solution (about 31 g/L at start) after mixing with 5 vol % ionic liquid; for Ethanol / Ethanol Remaining in Solution: overnight equilibration, HPLC; for Ethanol Extracted: percentage relative to control without ionic liquid (Example 31); for Ethanol Extracted / Ethanol Remaining in Solution: 5 vol % ionic liquid; for Ethanol Remaining in Solution: aqueous solution about 31 g/L ethanol
[4] = Extraction of isobutanol from an aqueous solution by ionic liquid; conditions: for Isobutanol: isobutanol concentration in aqueous solution (about 31 g/L at start) after mixing with 5 vol % ionic liquid; for Isobutanol / Isobutanol Remaining in Solution: overnight equilibration, HPLC; for Isobutanol Extracted: percentage relative to control without ionic liquid (Example 31); for Isobutanol Extracted / Isobutanol Remaining in Solution: 5 vol % ionic liquid; for Isobutanol Remaining in Solution: aqueous solution about 31 g/L isobutanol
Protocol: Ethanol and isobutanol concentration in the solution was measured using HPLC as described above following thorough mixing and overnight equilibration of the contents of the vial.

Compound	GUI of Sample (Glucose Utilization Index) [1]	GUI of Sample (Glucose Utilization Index) [2]	Ethanol [3] [mM]	Ethanol Extracted [3] [%]	Isobutanol [4] [mM]	Isobutanol Extracted [4] [%]	Ethanol Remaining in Solution [3] [g/L]	Isobutanol Remaining in Solution [4] [g/L]
1-butyl-3-methylimidazolium 1,1,2,3,3,3-hexafluoropropanesulfonate [[BMIM] [HFPS]]	8.0 and 11.5	21.2 and 34.3						
1-butyl-3-methylimidazolium 2-(1,2,2,2-tetrafluoroethoxy)-1,1,2,2-tetrafluoroethanesulfonate [[BMIM] [FS]]	24.0	54.4						
CCCCCCn1cc[n+](C)c1.FC(F)(F)C(F)(F)[P-](F)(F)(F)(C(F)(F)C(F)(F)F)C(F)(F)C(F)(F)F [[HMIM] [FAP], 1-hexyl-3-methylimidazolium tris(pentafluoroethyl)trifluorophosphate]	84.7	51.9	680	0.45	404	3.14		
1-butyl-3-methylimidazolium bis(trifluoromethylsulfonyl)imide [[BMIM] [Tf2N]]	26.8	64.4						
1-butyl-3-methylimidazolium 1,1,2-trifluoro-2-(perfluoroethoxy)ethanesulfonate [[BMIM] [TPES]]	7.21	5.06						
3-methyl-1-propylpyridinium bis(trifluoromethylsulfonyl)imide [[PMPy] [Tf2N]]	26.1	63.5						
tetradecyl(tri-n-hexyl)phosphonium 1,1,2-trifluoro-2-(perfluoroethoxy)ethanesulfonate [[6,6,6,14-P] [TPES]]	92.8	62.8						
1-butyl-3-methylpyrrolidinium bis(trifluoromethylsulfonyl)imide [[BMP] [Tf2N]]	0.96	49.8	676	1.17	391	6.33	31.1	29.0
1-butyl-3-methylimidazolium 1,1,2-trifluoro-2-(trifluoromethoxy)ethanesulfonate [[BMIM] [TTES]]	16.2	58.8						
CCCCn1cc[n+](C)c1.F[B-](F)(F)F [[BMIM] [BF4], 1-butyl-3-methylimidazolium tetrafluoroborate]		11.8						
1-ethyl-3-methylimidazolium bis(pentafluoroethylsulfonyl)imide [[EMIM] [BEI]]	25.5	36.0						
1-ethyl-3-methylimidazolium bis(trifluoromethylsulfonyl)imide [[EMIM] [Tf2N]]	54.5	51.2	670	1.96	389	7.11	30.9	28.8
1-hexyl-3-methylimidazolium bis(trifluoromethylsulfonyl)imide [[HMIM] [Tf2N]]	19.5	66.2	678	0.76	388	7.28	31.3	28.8
CCCCn1cc[n+](C)c1.F[P-](F)(F)(F)(F)F [[BMIM] [PF6], 1-butyl-3-methylimidazolium hexafluorophosphate]		55.4						
